The text below walks through data of article PMC6754432, “Radiochemical examination of transthyretin (TTR) brain penetration assisted by iododiflunisal, a TTR tetramer stabilizer and a new candidate drug for AD” (Scientific Reports, 2019).

Structures are written as SMILES.

One series addresses T1, TTR (Homo sapiens, UniProt P02766).
T1 construct: made in house
As to the kind of experiment: Displacement of bound [131I]IDIF from TTR-[131I]IDIF complex by non-labeled IDIF. Format: binding. As to conditions: concentrations over 50 μM of IDIF, TTR complex 0.11 μM, overnight 4 °C. On the procedure: Likewise, the preparation of [^131I]TTR-IDIF was carried out under adequate conditions to ensure that all the [^131I]TTR was stabilized with IDIF. This is extremely important because the separation of [^131I]TTR from [^131I]TTR-IDIF is unfeasible using chromatographic techniques. […] It was observed that a concentration of IDIF = 50 µM displaced > 99% of bound [^131I]IDIF.
First, the TTR/IDIF relative amount to achieve complete formation of the complex was determined. With that aim, six 100 μL aliquots of the [^131I]IDIF-TTR complex prepared as described above were incubated overnight (T = 4 °C) with different amounts of non-radioactive IDIF in 100 μL TNE buffer (final concentrations of IDIF = 0.88, 2.63, 8.76, 17.5, 52.5 and 175 μM, respectively; final concentration of TTR as TTR-[^131I]IDIF complex = 0.11 μM). After incubation, the samples were eluted through illustra^TM NAP-5 columns (GE Healthcare, USA) and radioactivity corresponding to the collected fractions of free [^131I]IDIF and TTR-[^131I]IDIF complex were compared to determine the proportion of [^131I]IDIF free and bound to TTR. For concentrations over 50 μM of IDIF, the displacement was > 97%.

Series [1] can be described thus: Ex vivo biodistribution by dissection and gamma counting after intravenous administration. The class given is in vivo. As to conditions: i.v., mice. As to the method:
The biodistribution of [^131I]TTR after intravenous administration in wild type mice was first investigated. With that aim, animals (n = 3 per time point) were administered with the radiotracer and sacrificed by exsanguination at pre-defined time points. Major organs were harvested together with blood and urine and the amount of radioactivity was determined by gamma counting. (Fig. 2, red bars).
Animals (n = 3 per compound and time point) were anesthetized with isoflurane 5% in pure oxygen and a solution containing [^131I]TTR, [^131I]IDIF, [^131I]TTR-IDIF complex or TTR-[^131I]IDIF complex (0.9 ± 0.4 MBq/120 μl) was injected through one of the lateral tail veins. Animals were recovered from anaesthesia and at pre-determined time points (t = 5, and 15 min and 1, 6 and 24 h), animals were sacrificed by perfusion using saline solution and kidneys, spleen, liver, small intestine, and brain were quickly removed and rinsed with water. The amount of activity in each organ was measured in an automatic gamma counter (2470 Wizard, PerkinElmer). Urine and blood samples were obtained just before perfusion. Part of the blood was processed to separate the plasma, which was also counted in the gamma counter.
For dissection and gamma counting experiments to assess biodistribution, values obtained for different compounds at each time point and organ were compared using t-student test, comparison of two independent means, using the GraphPad Prism software (version 7.03).

On to `O=C(O)c1cc(-c2ccc(F)cc2F)cc(I)c1O` [IDIF, iododiflunisal], for which the “displacement of [131I]IDIF” value at TTR is greater than 97%.

Take `O=C(O)c1cc(-c2ccc(F)cc2F)cc([131I])c1O` [[^131I]IDIF, [^131I]iododiflunisal]: in series [1] (blood, t = 5 min, n = 3), the “percentage of injected dose per gram of blood” value turned out to be 23.3 ± 7.6 %ID/g. The “maximum value in brain” value in series [1] (brain, 1 h after administration) was 0.05 %ID/g. In series [1] (kidneys, t = 5 min), this compound came in with an accumulation in kidneys of 14.9 ± 3.0 % ID/g. Further, in series [1] (liver, t = 5 min), the accumulation in liver is reported as 20.0 ± 5.5 % ID/g. The “accumulation in small intestine (peak)” value in series [1] (small intestine, peak at t = 1–6 h) is on record as “ca. 15 % ID/g”.
